Assay results taken from paper PMC11249012 (Journal of Medicinal Chemistry, 2024).
pIC50: −log10 of the molar value. Read-outs that look alike come from different tables or passages of the source.

Columns and labels:
[1] = tested on: hyperacetylation of tubulin, H3K9 and H3K27; assay: Western blot of tubulin and histone H3 hyperacetylation in B16-F10 cells; type: cell-based, mouse; settings: SAHA 100 nM
From the text: (§1) B16-F10 cells are responsive to 1,25D analogues[45] and HDACi[46],[47] and are therefore widely used in preclinical studies of melanoma solid tumor growth and metastases.[48] Although curable when treated early, melanoma is fatal when invasive. The American Cancer Society projected 97,610 new invasive melanoma cases in the US in 2023 and 7990 deaths. Current treatment options include chemotherapy, surgery, immunotherapy, or single agents targeting mutated genes such as B-RAF or C-KIT.[49]
After 6 h treatments, 4T1, 4T07, or B16-F10 cells were solubilized in lysis buffer (20 mM Tris, pH 8, 150 mM NaCl, 1% Triton X-100, 3.5 mM SDS, and 13 mM deoxycholic acid), and proteins were separated on a 4–15% Tris/glycine/SDS gel (Bio-Rad). Then, the proteins were transferred to a nitrocellulose membrane, followed by blocking in 5% skim milk in Tris-buffered saline (TBS, 1×) solution. […] Finally, signals were detected using Clarity ECL substrates (Bio-Rad) and a ChemiDoc Imaging System. Changes in protein levels were quantified relative to control using Image Lab software (version 6.0.1) after normalization to GAPDH. […]
Figure S2. […] Quantification of the analyses of hyperacetylation in B16-F10 cells of tubulin, H3K9 and H3K27. […]

VDR = target: T1, VDR (Mus musculus, UniProt P48281); assay: Cyp24a1 induction in B16-F10 melanoma cells; type: cell-based; set-up: endogenous in cells; host or cells: mouse B16-F10 melanoma cells; settings: Figure S2A
T1 sequence (P48281 1-422): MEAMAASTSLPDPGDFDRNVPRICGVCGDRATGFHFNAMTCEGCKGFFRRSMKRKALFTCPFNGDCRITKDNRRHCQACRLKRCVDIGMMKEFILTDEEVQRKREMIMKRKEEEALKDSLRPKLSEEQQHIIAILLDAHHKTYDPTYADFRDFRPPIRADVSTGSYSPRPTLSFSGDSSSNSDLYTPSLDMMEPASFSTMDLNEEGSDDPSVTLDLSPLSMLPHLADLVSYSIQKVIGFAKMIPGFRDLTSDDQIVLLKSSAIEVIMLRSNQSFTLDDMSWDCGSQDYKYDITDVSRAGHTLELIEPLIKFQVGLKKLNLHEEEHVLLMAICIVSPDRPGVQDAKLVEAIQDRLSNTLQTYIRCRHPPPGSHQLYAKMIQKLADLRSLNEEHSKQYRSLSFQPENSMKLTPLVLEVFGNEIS
From the text: as §1
RNA extraction was performed with the FavorPrep tissue total RNA mini kit (FAVORGEN Biotech Corporation FATRK 001) as per manufacturer’s instructions. cDNA was obtained from 1 μg of RNA using 5× All-in-One RT MasterMix (Applied Biological Materials (abm) Inc. G485) and diluted 5 times. qPCR was performed with BrightGreen 2× q-PCR MasterMix (abm MasterMix-LR-XL) on a Roche LightCycler 96 system. Expression of targeted genes was normalized to 18 s.
Figure S2. A. Analysis of Cyp24a1 induction by ZG126, DK406, AM193 along with 1,25D and SAHA as controls in B16-F10 cells. B. Western blots analyzing the effects of 1,25D, SAHA and hybrids on hyperacetylation of tubulin, H3K9 and H3K27 in B16-F10 cells. C. Quantification of the analyses of hyperacetylation in B16-F10 cells of tubulin, H3K9 and H3K27. D. Assessment of cytotoxicity in B16-F10 […]
(1 picture or pasted object on this page, not shown here)

HDAC4 = HDAC4 (Homo sapiens, UniProt P56524); assay: Biochemical assay for HDAC inhibition, HDAC4; settings: read-out: IC50 HDAC4
HDAC4, sequence (P56524 whole entry): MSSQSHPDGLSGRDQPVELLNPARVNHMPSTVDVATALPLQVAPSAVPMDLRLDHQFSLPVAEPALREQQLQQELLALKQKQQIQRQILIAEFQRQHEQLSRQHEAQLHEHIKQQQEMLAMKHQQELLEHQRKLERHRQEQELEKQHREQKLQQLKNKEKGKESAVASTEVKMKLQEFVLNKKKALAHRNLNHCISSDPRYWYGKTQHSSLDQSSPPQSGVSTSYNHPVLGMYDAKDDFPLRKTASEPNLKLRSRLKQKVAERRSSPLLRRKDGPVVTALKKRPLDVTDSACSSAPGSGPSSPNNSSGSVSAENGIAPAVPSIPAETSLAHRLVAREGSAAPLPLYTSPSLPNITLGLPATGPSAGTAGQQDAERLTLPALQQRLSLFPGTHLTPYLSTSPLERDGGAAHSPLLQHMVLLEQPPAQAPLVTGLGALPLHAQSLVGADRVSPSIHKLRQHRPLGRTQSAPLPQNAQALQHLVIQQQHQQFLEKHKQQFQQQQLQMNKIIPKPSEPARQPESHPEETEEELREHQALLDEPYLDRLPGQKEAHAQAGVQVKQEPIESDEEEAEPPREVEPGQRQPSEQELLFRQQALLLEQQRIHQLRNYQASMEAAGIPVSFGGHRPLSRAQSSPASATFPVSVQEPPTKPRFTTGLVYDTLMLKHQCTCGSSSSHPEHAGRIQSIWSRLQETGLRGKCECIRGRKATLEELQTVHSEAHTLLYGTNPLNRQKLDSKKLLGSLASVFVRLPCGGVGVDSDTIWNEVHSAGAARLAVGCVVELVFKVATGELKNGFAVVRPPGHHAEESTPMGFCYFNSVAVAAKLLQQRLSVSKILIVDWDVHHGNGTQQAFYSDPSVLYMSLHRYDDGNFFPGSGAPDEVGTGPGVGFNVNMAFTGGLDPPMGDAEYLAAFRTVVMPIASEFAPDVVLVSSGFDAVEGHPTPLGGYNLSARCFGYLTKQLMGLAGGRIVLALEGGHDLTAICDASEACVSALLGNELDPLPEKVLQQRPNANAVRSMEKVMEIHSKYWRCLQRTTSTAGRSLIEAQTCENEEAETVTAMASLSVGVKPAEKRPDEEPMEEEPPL

[2] = tested on: macrophage infiltration into 4T1 tumors; assay: Immunofluorescence of macrophages in 4T1 tumors (F4/80, Arg1); type: in vivo, mouse
Description: Inhibition of PD-L1 and CD80/CD86 is directly achieved through the immune checkpoint blockade of their receptors using anti-CTLA-4 and anti-PD-1 antibodies.[69],[70]
Primary tumor tissues were fixed using 4% paraformaldehyde and subsequently dehydrated in sucrose solutions ranging from 10 to 30% for approximately 24 h each. The tissues were then embedded in base molds (Fisherbrand—#22363553) containing an optimal cutting temperature (OCT) compound (Fisher Healthcare—#4585). The tissue blocks were placed immediately on dry ice until the OCT compound solidified, and then they were stored at −80 °C. Prior to IF staining, sections of 5–10 μm were obtained using a Leica CM3050 S cryostat and SuperFrost Plus slides (Fisherbrand—#1255015). The tumor sections were then incubated with blocking buffer [phosphate-buffered saline containing 2% bovine serum albumin, 0.3% Triton X-100, 1% FBS, and 10% goat serum] for 1 h at RT. To detect macrophages in the TME, the sections were incubated with a pan-macrophage rat monoclonal antibody F4/80 (Abcam—#6640) diluted in blocking buffer overnight at 4 °C. Sixteen hours later, tissues were washed 3 times with 100 mM Tris–HCl and then incubated with a secondary goat antirat antibody (Invitrogen—#A11081) for 1 h at RT. […] Subsequently, 4′,6-diamidino-2-phenylindole (DAPI; Invitrogen—#D3571) was used to counterstain the nuclei for 5 min at RT. Finally, the slides were mounted using Fluoromount-G medium (Invitrogen—#00495802) and coverslips (Fisher Scientific—#12545E) and imaged with a Zeiss LSM 710 confocal microscope with ×20 objective. Quantification was carried out by QuPath software (version 0.3.2). F4/80+ macrophages and F4/80+ Arg1+ M2 macrophages were classified based on their fluorescence signal.

CCC(CC)(c1ccc(C(=O)NCCCCC(=O)NO)cc1)c1ccc(OCC(O)C(C)(C)C)c(C)n1 (centres unmarked) [ZG-126, 4-(3-(5-(2-Hydroxy-3,3-dimethylbutoxy)-6-methylpyridin-2-yl)pentan-3-yl)-N-(5-(hydroxyamino)-5-oxopentyl)benzamide]
tubulin acetylation and histone hyperacetylation [1]: comparable to or greater than that induced by a saturating concentration of SAHA
Cyp24a1 induction (VDR): mimicked
pIC50 (HDAC4): 4.17
pIC50 (HDAC4; Table 1, purified enzyme, unit inferred): 4.17
reduction of the proportion of M2-polarized immunosuppressive macrophages ([2]; 4T1 tumors): 2 fold
total macrophage infiltration into 4T1 tumors (F4/80 staining) ([2]; Figure 8B): significantly reduced
percentage of anti-inflammatory M2 macrophages (Arg1 staining) ([2]; Figure 8C-E): most efficacious at reducing the percentage of anti-inflammatory M2 macrophages
reduction of total macrophage infiltration ([2]; TNBC (4T1) tumors): 2 fold
